Assay results published in patent US20240293349A1, “USE OF AN RXR AGONIST IN TREATING DRUG RESISTANT HER2+ CANCERS” (Io Therapeutics, Inc., priority 2022, published 2024).

Columns and labels:
LXR/RXR = assay: Activation of permissive RXR heterodimers
PPAR/RXR = assay: Activation of permissive RXR heterodimers
RXR homodimers = assay: Activation of RXR homodimers
RAR/RXR = assay: Activation of non-permissive RXR heterodimers
MCF7 cells = assay: Inhibition of breast cancer cell growth, DAPI nuclei count; format: cell-based; details: Her2− MCF7 cells; IRX4204 0-1000 nM, trastuzumab 0-10 μg/ml; 6 days
Excerpt: (§1) MCF7 is an ER^+ PR^+ Her2^− cell line. SkBr3 is an ER^− PR^− Her2^+ cell line. […] After a further 6 days, the cells were fixed with 4% paraformaldehyde in phosphate buffered saline (PBS). Nuclei were then stained with DAPI and imaged with the MetaXpress® microscope (Molecular Devices, San Jose, CA). Cell nuclei were segmented and then counted by defining pixel intensity over background and object size, using the algorithm of the MetaXpress® image analysis software.
(§2) Additionally the panel of breast cancer cell lines was expanded to also include the ER^+ PR^+ Her2^+ cell line BT474 and the ER^+ PR^− Her2^+ cell line MDA-MB-361.

FXR/RXR = assay: Activation of permissive RXR heterodimers
SkBr3 cells = assay: Inhibition of breast cancer cell growth, DAPI nuclei count; format: cell-based; details: for inhibition at 1 µM: Homo sapiens; for inhibition at 1 µM / DAPI Nuclei Count: SkBr3 cells, IRX4204 1000 nM
Excerpt: as §1, with “software. […]” for “software.”

Nurr1/RXR heterodimer = assay: Activation of permissive RXR heterodimers
MDA-MB-361 cells = assay: Inhibition of breast cancer cell growth, DAPI nuclei count; format: cell-based; details: IRX4204 1000 nM; for inhibition at 1 µM: Homo sapiens
Excerpt: as §1, with “software. Experimental data points were performed at a minimum of quadruplicate, and results were reported as average cell count ±standard deviation (SD).” for “software.”
(§3) To assess if this improved growth inhibition effect was synergistic, the percent inhibition observed for the highest concentrations of the combined therapeutic agents was compared to the percent inhibition that would be expected for the combination based on the observed inhibition of the therapeutic agents used alone, if the agents acting independently, that is, without interaction (see Table 1). That is, PAE=(FE1+((1−FE1)×FE2))×100, where PAE is the predicted additive effect, FE1 is the observed fractional effect of a 1st treatment, and FE2 is the observed fractional effect of a 2nd treatment.
as §2
(§4) To assess if this improved growth inhibition effect was synergistic, the percent inhibition observed for the highest concentrations of the combined therapeutic agents was compared to the percent inhibition that would be expected for the combination based on the observed inhibition of the therapeutic agents used alone, if the agents acting independently, that is, without interaction (see Tables 2-4).

BT474 cells = assay: as above; format: cell-based; details: IRX4204 1000 nM; for inhibition at 1 µM: Homo sapiens
Excerpt: as §1, with “software. Experimental data points were performed at a minimum of quadruplicate, and results were reported as average cell count ±standard deviation (SD).” for “software.”
as §3, §2, §4

[1] = system: HCC1954 human breast cancer cells; assay: Inhibition of growth of a Her2-targeted agent resistant Her2+ cell line, DAPI nuclei count; format: cell-based; details: for resistance of the cell line to the agent used individually: HCC1954, as compared to SkBr3; for growth inhibitory effect (FIGS. 4A-B, 5A-B), in words: HCC1954, 6 days, IRX4204 10, 100 or 1000 nM
Experimental: HCC1954 is Her2^+ cancer cell line derived from a ductal carcinoma of the breast.
HCC1954 human breast cancer cells were seeded at 3000 cells per well in 96-well plates and treated with neratinib [1 or 10 nM] or DMSO (0.1%) in combination with IRX4204 [10, 100, or 1000 nM]. After 6 days of treatment, cells were fixed with 4% paraformaldehyde. Nuclei were stained with DAPI, imaged using ImageXpress® Pico (Molecular Devices) and counted using CellReporterXpress® Analysis Software (FIGS. 4A-B) Each data point represents six replicates. Statistical significance was determined using the Bonferroni-Dunn method of multiple t-tests. Each day was analyzed individually, without assuming a consistent SD (*p<0.01).
The experiment was also conducted using tucatinib or lapatinib in place of neratinib.

[2] = system: PPAR/RXR, FXR/RXR, or LXR/RXR; details: cited from earlier work
SkBr3 = assay: IC50 of Her2 kinase inhibitors on Her2-amplified cell lines; format: cell-based; details: Homo sapiens, SK-BR-3
HCC1954 = assay: as above; format: cell-based; details: Homo sapiens
AU565 = assay: as above; format: cell-based; details: Homo sapiens
[3] = SK-BR-3, lapatinib experiment, Lapatinib 1000 nM
[4] = SK-BR-3, neratinib experiment, Neratinib 1000 nM
[5] = lapatinib experiment, Lapatinib 1000 nM, control 19855
[6] = neratinib experiment, Neratinib 1000 nM, control 6696
[7] = MDA-MB-361 cells, lapatinib experiment, Lapatinib 1000 nM, control 6696
[8] = MDA-MB-361 cells, neratinib experiment, Neratinib 1000 nM, control 5297
[9] = BT-474, lapatinib experiment, Lapatinib 1000 nM
[10] = BT-474, neratinib experiment, Neratinib 1000 nM
[11] = lapatinib experiment, Lapatinib 1000 nM, control 2937
[12] = neratinib experiment, Neratinib 1000 nM, control 2192

CC(/C=C/[C@@H]1C[C@]1(C)c1ccc2c(c1)C(C)(C)CCC2(C)C)=C\C(=O)O [IRX4204, 3,7-dimethyl-6(S),7(S)-methano,7-[1,1,4,4-tetramethyl-1,2,3,4-tetrahydron-aphth-7-yl]2(E), 4(E) heptadienoic acid]
activation of heterodimer, in words (LXR/RXR): does not activate | activation of heterodimer, in words (PPAR/RXR): does not activate | activation of RXR homodimers, in words (RXR homodimers): specifically activate | activation of heterodimer, in words (RAR/RXR): does not activate | growth inhibitory effect (FIG. 1A), in words (MCF7 cells): neither agent had more than marginal effect | activation of heterodimer, in words (FXR/RXR): does not activate | growth inhibitory effect (FIG. 1B), in words (SkBr3 cells; Her2+ SkBr3 cells, IRX4204 0-1000 nM, trastuzumab 0-10 μg/ml, 6 days): moderate growth inhibitory effect | inhibition at 1 µM (SkBr3 cells; SK-BR-3, 144 h, 6 days, Herceptin 1000 ng, alone or combined): 29.4% | inhibition at 1 µM (SkBr3 cells; [3]): 4.8% | inhibition at 1 µM (SkBr3 cells; [4]): 22.1% | DAPI Nuclei Count (SkBr3 cells; 6 days, Herceptin 1000 ng, alone or combined, control 25958): 18274 | DAPI Nuclei Count (SkBr3 cells; [5]): 18906 | DAPI Nuclei Count (SkBr3 cells; [6]): 5218 | activation of heterodimer, in words (Nurr1/RXR heterodimer): specifically activates | inhibition at 1 µM (MDA-MB-361 cells; MDA-MB-361, MDA-MB-361 cells, lapatinib experiment, Lapatinib 1000 nM): 22.1% | inhibition at 1 µM (MDA-MB-361 cells; MDA-MB-361, MDA-MB-361 cells, neratinib experiment, Neratinib 1000 nM): 43.6% | DAPI Nuclei Count (MDA-MB-361 cells; [7]): 5218 | DAPI Nuclei Count (MDA-MB-361 cells; [8]): 2459 | inhibition at 1 µM (BT474 cells; [9]): -15.7% | inhibition at 1 µM (BT474 cells; [10]): 6.8% | DAPI Nuclei Count (BT474 cells; [11]): 3399 | DAPI Nuclei Count (BT474 cells; [12]): 2043 | resistance of the cell line to the agent used individually [1]: highly resistant | growth inhibitory effect (FIGS. 4A-B, 5A-B), in words [1]: no growth inhibitory effect

Cc1cc2c(cc1C1(c3ccc(C(=O)O)cn3)CC1)C(C)(C)CCC2(C)C [LGD268]
activation of one or more of PPAR/RXR, FXR/RXR, or LXR/RXR, in words [2]: activates

CS(=O)(=O)CCNCc1ccc(-c2ccc3ncnc(Nc4ccc(OCc5cccc(F)c5)c(Cl)c4)c3c2)o1 [Lapatinib, reference compound]
IC50 (SkBr3): 152 nM | IC50 (HCC1954): > 1400 nM | inhibition at 1 µM (SkBr3 cells; [3]): 88.9% | DAPI Nuclei Count (SkBr3 cells; [5]): 2211 | IC50 (AU565): 294 nM | inhibition at 1 µM (MDA-MB-361 cells; MDA-MB-361 cells, lapatinib experiment, Lapatinib 1000 nM): 86.5% | DAPI Nuclei Count (MDA-MB-361 cells; [7]): 903 | inhibition at 1 µM (BT474 cells; [9]): 58.8% | DAPI Nuclei Count (BT474 cells; [11]): 1211 | resistance of the cell line to the agent used individually [1]: resistant | growth inhibitory effect (FIGS. 4A-B, 5A-B), in words [1]: some small effect

CCOc1cc2ncc(C#N)c(Nc3ccc(OCc4ccccn4)c(Cl)c3)c2cc1NC(=O)/C=C/CN(C)C [Neratinib, reference compound]
IC50 (SkBr3): 7 nM | IC50 (HCC1954): > 100 nM | inhibition at 1 µM (SkBr3 cells; [4]): 86.5% | DAPI Nuclei Count (SkBr3 cells; [6]): 903 | IC50 (AU565): 20 nM | inhibition at 1 µM (MDA-MB-361 cells; MDA-MB-361 cells, neratinib experiment, Neratinib 1000 nM): 95.3% | DAPI Nuclei Count (MDA-MB-361 cells; [8]): 249 | inhibition at 1 µM (BT474 cells; [10]): 91.8% | DAPI Nuclei Count (BT474 cells; [12]): 180 | resistance of the cell line to the agent used individually [1]: resistant

Cc1cc(Nc2ncnc3ccc(NC4=NC(C)(C)CO4)cc23)ccc1Oc1ccn2ncnc2c1 [Tucatinib]
IC50 (SkBr3): 22 nM | IC50 (HCC1954): > 2000 nM | resistance of the cell line to the agent used individually [1]: resistant | growth inhibitory effect (FIGS. 4A-B, 5A-B), in words [1]: some small effect
